Assay: xn = mol fraction of the nth substance listed
Conditions: 101 kPa, Liquid; for viscosity: Concentric cylinders viscometry; for mass density: Vibrating tube method

COCCOCCOCCOCCOC [2,5,8,11,14-pentaoxapentadecane] + CCOC(=O)C(C)O
Conditions | mass density [kg/m3] | viscosity [mPa·s]
288.15 K, x2 = 0 | 1016.7 | 4.353
288.15 K, x2 = 0.0999 | 1018.51 | 4.303
288.15 K, x2 = 0.1999 | 1020.55 | 4.265
288.15 K, x2 = 0.2999 | 1022.59 | 4.226
288.15 K, x2 = 0.3998 | 1024.79 | 4.176
288.15 K, x2 = 0.4999 | 1027.14 | 4.109
288.15 K, x2 = 0.6001 | 1029.57 | 4.027
288.15 K, x2 = 0.6998 | 1032.25 | 3.906
288.15 K, x2 = 0.8001 | 1034.95 | 3.746
288.15 K, x2 = 0.9 | 1037.37 | 3.53
293.15 K, x2 = 0 | 1012.06 | 3.795
293.15 K, x2 = 0.0999 | 1013.83 | 3.749
293.15 K, x2 = 0.1999 | 1015.83 | 3.713
293.15 K, x2 = 0.2999 | 1017.82 | 3.673
293.15 K, x2 = 0.3998 | 1019.98 | 3.623
293.15 K, x2 = 0.4999 | 1022.26 | 3.557
293.15 K, x2 = 0.6001 | 1024.61 | 3.478
293.15 K, x2 = 0.6998 | 1027.18 | 3.364
293.15 K, x2 = 0.8001 | 1029.8 | 3.219
293.15 K, x2 = 0.9 | 1032.09 | 3.028
298.15 K, x2 = 0 | 1007.42 | 3.348
298.15 K, x2 = 0.0999 | 1009.15 | 3.299
298.15 K, x2 = 0.1999 | 1011.11 | 3.266
298.15 K, x2 = 0.2999 | 1013.05 | 3.23
298.15 K, x2 = 0.3998 | 1015.17 | 3.181
298.15 K, x2 = 0.4999 | 1017.37 | 3.115
298.15 K, x2 = 0.6001 | 1019.64 | 3.036
298.15 K, x2 = 0.6998 | 1022.11 | 2.929
298.15 K, x2 = 0.8001 | 1024.63 | 2.8
298.15 K, x2 = 0.9 | 1026.8 | 2.633
303.15 K, x2 = 0 | 1002.79 | 2.983
303.15 K, x2 = 0.0999 | 1004.48 | 2.933
303.15 K, x2 = 0.1999 | 1006.39 | 2.9
303.15 K, x2 = 0.2999 | 1008.28 | 2.864
303.15 K, x2 = 0.3998 | 1010.34 | 2.815
303.15 K, x2 = 0.4999 | 1012.47 | 2.752
303.15 K, x2 = 0.6001 | 1014.66 | 2.681
303.15 K, x2 = 0.6998 | 1017.03 | 2.58
303.15 K, x2 = 0.8001 | 1019.45 | 2.463
303.15 K, x2 = 0.9 | 1021.49 | 2.311
308.15 K, x2 = 0 | 998.153 | 2.668
308.15 K, x2 = 0.0999 | 999.806 | 2.626
308.15 K, x2 = 0.1999 | 1001.67 | 2.593
308.15 K, x2 = 0.2999 | 1003.5 | 2.557
308.15 K, x2 = 0.3998 | 1005.51 | 2.511
308.15 K, x2 = 0.4999 | 1007.57 | 2.452
308.15 K, x2 = 0.6001 | 1009.68 | 2.385
308.15 K, x2 = 0.6998 | 1011.95 | 2.293
308.15 K, x2 = 0.8001 | 1014.25 | 2.184
308.15 K, x2 = 0.9 | 1016.16 | 2.046
313.15 K, x2 = 0 | 993.523 | 2.407
313.15 K, x2 = 0.0999 | 995.132 | 2.367
313.15 K, x2 = 0.1999 | 996.945 | 2.336
313.15 K, x2 = 0.2999 | 998.729 | 2.301
313.15 K, x2 = 0.3998 | 1000.64 | 2.257
313.15 K, x2 = 0.4999 | 1002.66 | 2.2
313.15 K, x2 = 0.6001 | 1004.68 | 2.137
313.15 K, x2 = 0.6998 | 1006.87 | 2.053
313.15 K, x2 = 0.8001 | 1009.04 | 1.953
313.15 K, x2 = 0.9 | 1010.8 | 1.827
318.15 K, x2 = 0 | 988.892 | 2.185
318.15 K, x2 = 0.0999 | 990.453 | 2.147
318.15 K, x2 = 0.1999 | 992.217 | 2.115
318.15 K, x2 = 0.2999 | 993.944 | 2.081
318.15 K, x2 = 0.3998 | 995.8 | 2.041
318.15 K, x2 = 0.4999 | 997.738 | 1.991
318.15 K, x2 = 0.6001 | 999.671 | 1.932
318.15 K, x2 = 0.6998 | 1001.77 | 1.854
318.15 K, x2 = 0.8001 | 1003.81 | 1.76
318.15 K, x2 = 0.9 | 1005.43 | 1.642
323.15 K, x2 = 0 | 984.262 | 2.003
323.15 K, x2 = 0.0999 | 985.775 | 1.972
323.15 K, x2 = 0.1999 | 987.487 | 1.943
323.15 K, x2 = 0.2999 | 989.156 | 1.91
323.15 K, x2 = 0.3998 | 990.94 | 1.87
323.15 K, x2 = 0.4999 | 992.806 | 1.818
323.15 K, x2 = 0.6001 | 994.651 | 1.763
323.15 K, x2 = 0.6998 | 996.689 | 1.69
323.15 K, x2 = 0.8001 | 998.562 | 1.605
323.15 K, x2 = 0.9 | 1000.06 | 1.496

Reference: the NIST ThermoML archive (doi:10.1016/j.fluid.2014.04.002)
